# Key:
# Assay in all cases: Cytotoxicity, propidium iodide-based monolayer assay
# Type in all cases: cell-based
# [1] = system: MMXF L-363; details: Homo sapiens, 96 h; MMXF L-363, multiple myeloma; four days of treatment; T/C=50%; read-out: Absolute IC50
# Description: (§1) The cytotoxicity was tested for compounds of the invention on five different cell-lines, namely LXFL 1121, MAXF 401, MMXF L-636, PRXF PC-3M and UXF 1138 which are respectively lung large cell carcinoma, breast adeno carcinoma, multiple myeloma, prostate adeno carcinoma and uterine sarcoma.
# (§2) Therefore, the compounds have a cytotoxicity against tumor cells and can be used for treating cancer. Materials and Methods Compound Handling A working stock solution of the test compounds was prepared in DMSO at a concentration of 33 mM or 8.25 mM, and small aliquots were stored at −20° C. On each day of an experiment, a frozen aliquot of the working stock solution was thawed and stored at room temperature prior to and during treatment. All liquid handling steps were performed using the Tecan Freedom EVO 200 platform. First, serial 2-fold dilutions of the 33 mM DMSO working stock solution were done in DMSO. The DMSO dilutions were then diluted 1:22 into cell culture medium in an intermediate dilution plate. Finally, 10 μl taken from the intermediate dilution plate were transferred to 140 μl/well of the final assay plate. Thus, the DMSO serial dilutions were diluted 1:330 with cell culture medium, and the DMSO concentration in the assay was 0.3% v/v. Tumor Cell Lines The cell lines used in this study were derived from solid tumors as well as from hematological malignancies. Cell lines were routinely passaged once or twice weekly and maintained in culture for up to 20 passages. Most cell lines were grown at 37° C. in a humidified atmosphere with 5% CO2 in RPMI 1640 medium (25 mM HEPES, with L-glutamine, #FG1385, Biochrom, Berlin, Germany) supplemented with 10% (v/v) fetal calf serum (Sigma, Taufkirchen, Germany) and 0.05 mg/mL gentamicin (Life Technologies, Karlsruhe, Germany). […] Briefly, cells were harvested from exponential phase cultures, counted and plated in 96 well flat-bottom microtiter plates at a cell density of 4,000 to 40,000 cells/well dependent on the cell line's growth rate. […] After an incubation period of 1-2 hours at room temperature, fluorescence (FU) was measured using the Enspire Multimode Plate Reader (excitation λ=530 nm, emission λ=620 nm) to quantify the amount of attached viable cells. Data Evaluation An assay was considered fully evaluable if the following quality control criteria were fulfilled: • Z′-factor calculated within the assay plate ≥0.5 • control/background ratio >3.0 • coefficient of variation in the growth control wells ≤30% Drug effects were expressed in terms of the percentage of the fluorescence signal, obtained by comparison of the mean signal in the treated wells with the mean signal of the untreated controls (expressed by the test-versus-control value, T/C-value [%]): […]
# [2] = system: MAXF 401; details: Homo sapiens, MAXF401, 96 h; MAXF 401, breast adeno carcinoma; four days of treatment; T/C=50%; read-out: Absolute IC50
# Description: as §1, §2
# [3] = system: PRXF PC-3M; details: Homo sapiens, 96 h, prostate adeno carcinoma, four days of treatment, T/C=50%, read-out: Absolute IC50
# Description: as §1, §2
# [4] = system: UXF 1138; details: 96 h; UXF 1138, uterine sarcoma; four days of treatment; T/C=50%; read-out: Absolute IC50
# Description: as §1, §2
compound,measurement,setting,value
"O=C(Nc1scc(-c2ccc(Cl)c(F)c2)c1C(=O)O)c1ccccc1 [Compound #2, 2-Benzamido-4-(4-chloro-3-fluoro-phenyl)thiophene-3-carboxylic acid]",IC50,[1],11.9 µM
same,IC50,[2],6.56 µM
same,IC50,[3],4.74 µM
same,IC50,[4],4.48 µM

# — patent publication US11840527B2, “Non-fused thiophene derivatives and their uses” (ENYO PHARMA, priority 2018, dated 2023)
